Values joined by “and” are separate entries in the source; they are usually repeats but may differ in a detail not shown here. Equal entries are not always repeated.
Tested on: 354836-022-R-J1-PDC multicell spheroid viability
Assay: Anticancer human tumor 354836-022-R-J1-PDC patient-derived head and neck squamous cell carcinoma cell line growth inhibition [PI3K]
Details: for viability, T/C: stronger effect = lower value
Outline: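 Spheroid viability read-out. Co-cultures contained the tumor line plus HUVEC and human MSCs. Each agent was paired with a PI3K inhibitor (inavolisib, alpelisib, duvelisib, copanlisib) across half-log dilutions starting at clinical Cmax, or at 10 microM when Cmax was unknown.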
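Note: spheroids exposed to agents for seven days before the viability read.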

Q: For `CNC(=O)c1ccc(N2C(=S)N(c3ccc(C#N)c(C(F)(F)F)c3)C(=O)C2(C)C)cc1F`, which viability, T/C (compound 0.0316 µM) is on record?
A: 106% [middle of 4 runs]

Q: What about the viability, T/C (compound 0.1 µM) of the same compound?
A: 102% [middle of 4 runs]

Q: What about the viability, T/C (compound 0.316 µM) of the same compound?
A: 96.3% and 107% (2×) and 116%

Q: And the viability, T/C (compound 1 µM)?
A: 100% [middle of 4 runs]

Q: And the viability, T/C (compound 3.16 µM)?
A: 99.1% and 122% and 104% (2×)

Q: What about the viability, T/C (compound 10 µM) of the same compound?
A: 96.7% [middle of 4 runs]

Q: And the IC50 (curve of compound)?
A: > 10 µM

Q: Which results are given for `CC(=O)c1c(C)c2cnc(Nc3ccc(N4CCNCC4)cn3)nc2n(C2CCCC2)c1=O` + COc1c(OCCCN2CCOCC2)ccc2c3n(c(=NC(=O)c4cnc(N)nc4)nc12)CCN3?
A: IC50 (curve of first compound, second compound 0.00316 µM): > 0.1 µM; IC50 (curve of first compound, second compound 0.01 µM): > 0.1 µM; IC50 (curve of first compound, second compound 0.0316 µM): > 0.1 µM; IC50 (curve of first compound, second compound 0.1 µM): > 0.1 µM; IC50 (curve of first compound, second compound 0.316 µM): < 0.000316 µM; IC50 (curve of first compound, second compound 1 µM): < 0.000316 µM; viability, T/C (second compound 0.00316 µM, first compound 0.000316 µM): 115%; viability, T/C (second compound 0.00316 µM, first compound 0.001 µM): 116%; viability, T/C (second compound 0.00316 µM, first compound 0.00316 µM): 119%; viability, T/C (second compound 0.00316 µM, first compound 0.01 µM): 113%; viability, T/C (second compound 0.00316 µM, first compound 0.0316 µM): 99.9%; viability, T/C (second compound 0.00316 µM, first compound 0.1 µM): 107%; viability, T/C (second compound 0.01 µM, first compound 0.000316 µM): 107%; viability, T/C (second compound 0.01 µM, first compound 0.001 µM): 121%; viability, T/C (second compound 0.01 µM, first compound 0.00316 µM): 93.7%; viability, T/C (second compound 0.01 µM, first compound 0.01 µM): 99.1%; viability, T/C (second compound 0.01 µM, first compound 0.0316 µM): 85.1%; viability, T/C (second compound 0.01 µM, first compound 0.1 µM): 105%; viability, T/C (second compound 0.0316 µM, first compound 0.000316 µM): 78.7%; viability, T/C (second compound 0.0316 µM, first compound 0.001 µM): 92.1%; viability, T/C (second compound 0.0316 µM, first compound 0.00316 µM): 81.3%; viability, T/C (second compound 0.0316 µM, first compound 0.01 µM): 82.2%; viability, T/C (second compound 0.0316 µM, first compound 0.0316 µM): 95.9%; viability, T/C (second compound 0.0316 µM, first compound 0.1 µM): 83.3%; viability, T/C (second compound 0.1 µM, first compound 0.000316 µM): 48.8%; viability, T/C (second compound 0.1 µM, first compound 0.001 µM): 54.3%; viability, T/C (second compound 0.1 µM, first compound 0.00316 µM): 57.6%; viability, T/C (second compound 0.1 µM, first compound 0.01 µM): 61.3%; viability, T/C (second compound 0.1 µM, first compound 0.0316 µM): 55.7%; viability, T/C (second compound 0.1 µM, first compound 0.1 µM): 59.6%; viability, T/C (second compound 0.316 µM, first compound 0.000316 µM): 15.9%; viability, T/C (second compound 0.316 µM, first compound 0.001 µM): 16.5%; viability, T/C (second compound 0.316 µM, first compound 0.00316 µM): 12.5%; viability, T/C (second compound 0.316 µM, first compound 0.01 µM): 14.6%; viability, T/C (second compound 0.316 µM, first compound 0.0316 µM): 15.2%; viability, T/C (second compound 0.316 µM, first compound 0.1 µM): 14.1%; viability, T/C (second compound 1 µM, first compound 0.000316 µM): 2.1%; viability, T/C (second compound 1 µM, first compound 0.001 µM): 1.43%; viability, T/C (second compound 1 µM, first compound 0.00316 µM): 1.73%; viability, T/C (second compound 1 µM, first compound 0.01 µM): 2.18%; viability, T/C (second compound 1 µM, first compound 0.0316 µM): 2.06%; viability, T/C (second compound 1 µM, first compound 0.1 µM): 1.39%
